# Source: PubChem BioAssay (NCI)
#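 In this assay, cells in 96-well plates receive the compound at five concentrations for 48 hours. Endpoints are linearly interpolated between the surrounding concentrations. GI50 = concentration required for 50% inhibition of growth. TGI is the concentration that stops growth completely.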
# Assays:
# Assay in all cases: DTP human tumour cell line panel, 48 h
# [1] = system: 786-0 renal
# [2] = system: A498 renal
# [3] = system: A549 NSCLC
# [4] = system: ACHN renal
# [5] = system: BT-549 breast
# [6] = system: CAKI-1 renal
# [7] = system: CCRF-CEM leukemia
# [8] = system: COLO 205 colon
# [9] = system: DU-145 prostate
# [10] = system: EKVX NSCLC
# [11] = system: HCC-2998 colon
# [12] = system: HCT-116 colon
# [13] = system: HCT-15 colon
# [14] = system: HL-60(TB) leukemia
# [15] = system: HOP-62 NSCLC
# [16] = system: HOP-92 NSCLC
# [17] = system: HS 578T breast
# [18] = system: HT29 colon
# [19] = system: IGROV1 ovarian
# [20] = system: K-562 leukemia
# [21] = system: KM12 colon
# [22] = system: LOX IMVI melanoma
# [23] = system: M14 melanoma
# [24] = system: MALME-3M melanoma
# [25] = system: MCF7 breast
# [26] = system: MDA-MB-231 breast
# [27] = system: MDA-MB-435
# [28] = system: MOLT-4 leukemia
# [29] = system: NCI-H226 lung
# [30] = system: NCI-H23 lung
# [31] = system: NCI-H460 lung
# [32] = system: NCI-H522 lung
# [33] = system: NCI/ADR-RES ovarian
# [34] = system: OVCAR-3 ovarian
# [35] = system: OVCAR-4 ovarian
# [36] = system: OVCAR-5 ovarian
# [37] = system: OVCAR-8 ovarian
# [38] = system: PC-3 prostate
# [39] = system: RPMI-8226 leukemia
# [40] = system: RXF 393 renal
# [41] = system: SF-268 CNS
# [42] = system: SF-295 CNS
# [43] = system: SF-539 CNS
# [44] = system: SK-MEL-2 melanoma
# [45] = system: SK-MEL-28 melanoma
# [46] = system: SK-MEL-5 melanoma
# [47] = system: SK-OV-3 ovarian
# [48] = system: SN12C renal
# [49] = system: SNB-19 CNS
# [50] = system: SNB-75 CNS
# [51] = system: SR leukemia
# [52] = system: SW-620 colon
# [53] = system: T-47D breast
# [54] = system: TK-10 renal
# [55] = system: U251 CNS
# [56] = system: UACC-257 melanoma
# [57] = system: UACC-62 melanoma
# [58] = system: UO-31 renal
compound,measurement,setting,value
C#CCOc1cccc(Nc2ncnc3c(NC(=O)C=C)cccc23)c1,GI50,[1],19.1 µM
same,TGI,[1],52.7 µM
same,GI50,[2],24.4 µM
same,TGI,[2],64.4 µM
same,GI50,[3],30.9 µM
same,TGI,[3],> 100 µM
same,GI50,[4],17.8 µM
same,TGI,[4],63.4 µM
same,GI50,[5],13.9 µM
same,TGI,[5],89.9 µM
same,GI50,[6],26.4 µM
same,TGI,[6],> 100 µM
same,GI50,[7],16.5 µM
same,TGI,[7],> 100 µM
same,GI50,[8],24.6 µM
same,TGI,[8],73.4 µM
same,GI50,[9],18.1 µM
same,TGI,[9],> 100 µM
same,GI50,[10],28.3 µM
same,TGI,[10],> 100 µM
same,GI50,[11],17.7 µM
same,TGI,[11],33.9 µM
same,GI50,[12],17 µM
same,TGI,[12],85.9 µM
same,GI50,[13],12.6 µM
same,TGI,[13],81.8 µM
same,GI50,[14],18.9 µM
same,TGI,[14],> 100 µM
same,GI50,[15],27.8 µM
same,TGI,[15],> 100 µM
same,GI50,[16],13.6 µM
same,TGI,[16],42.6 µM
same,GI50,[17],30.3 µM
same,TGI,[17],> 100 µM
same,GI50,[18],19.3 µM
same,TGI,[18],98.8 µM
same,GI50,[19],17.8 µM
same,TGI,[19],44.9 µM
same,GI50,[20],7.87 µM
same,TGI,[20],> 100 µM
same,GI50,[21],20.3 µM
same,TGI,[21],> 100 µM
same,GI50,[22],15.7 µM
same,TGI,[22],46.4 µM
same,GI50,[23],19.4 µM
same,TGI,[23],67.8 µM
same,GI50,[24],18.5 µM
same,TGI,[24],52 µM
same,GI50,[25],21.2 µM
same,TGI,[25],> 100 µM
same,GI50,[26],20.7 µM
same,TGI,[26],> 100 µM
same,GI50,[27],7.14 µM
same,TGI,[27],77.7 µM
same,GI50,[28],19.4 µM
same,TGI,[28],> 100 µM
same,GI50,[29],25.5 µM
same,TGI,[29],69.1 µM
same,GI50,[30],24.8 µM
same,TGI,[30],> 100 µM
same,GI50,[31],27 µM
same,TGI,[31],80.4 µM
same,GI50,[32],14.1 µM
same,TGI,[32],32.6 µM
same,GI50,[33],19.8 µM
same,TGI,[33],98.1 µM
same,GI50,[34],16.5 µM
same,TGI,[34],91.5 µM
same,GI50,[35],37.8 µM
same,TGI,[35],> 100 µM
same,GI50,[36],27.6 µM
same,TGI,[36],> 100 µM
same,GI50,[37],21 µM
same,TGI,[37],70.1 µM
same,GI50,[38],15.9 µM
same,TGI,[38],67.1 µM
same,GI50,[39],8.46 µM
same,TGI,[39],47.2 µM
same,GI50,[40],13.3 µM
same,TGI,[40],39.7 µM
same,GI50,[41],27.7 µM
same,TGI,[41],> 100 µM
same,GI50,[42],27.4 µM
same,TGI,[42],> 100 µM
same,GI50,[43],14 µM
same,TGI,[43],36 µM
same,GI50,[44],19.8 µM
same,TGI,[44],63.7 µM
same,GI50,[45],20.6 µM
same,TGI,[45],88.6 µM
same,GI50,[46],14.8 µM
same,TGI,[46],33.1 µM
same,GI50,[47],38.2 µM
same,TGI,[47],> 100 µM
same,GI50,[48],16.5 µM
same,TGI,[48],62.6 µM
same,GI50,[49],39.5 µM
same,TGI,[49],> 100 µM
same,GI50,[50],17.6 µM
same,TGI,[50],> 100 µM
same,GI50,[51],4.37 µM
same,TGI,[51],> 100 µM
same,GI50,[52],25.8 µM
same,TGI,[52],> 100 µM
same,GI50,[53],18.2 µM
same,TGI,[53],78.4 µM
same,GI50,[54],19.2 µM
same,TGI,[54],69.2 µM
same,GI50,[55],30.4 µM
same,TGI,[55],> 100 µM
same,GI50,[56],31.4 µM
same,TGI,[56],> 100 µM
same,GI50,[57],12.3 µM
same,TGI,[57],37.3 µM
same,GI50,[58],13.4 µM
same,TGI,[58],87.5 µM
N[C@H](CCC(=O)N[C@@H](Cc1c[nH]c2ccccc12)C(=O)O)C(=O)O,GI50,[1],> 100 µM
same,TGI,[1],> 100 µM
same,GI50,[2],> 100 µM
same,TGI,[2],> 100 µM
same,GI50,[3],> 100 µM
same,TGI,[3],> 100 µM
same,GI50,[4],> 100 µM
same,TGI,[4],> 100 µM
same,GI50,[5],> 100 µM
same,TGI,[5],> 100 µM
same,GI50,[6],> 100 µM
same,TGI,[6],> 100 µM
same,GI50,[7],> 100 µM
same,TGI,[7],> 100 µM
same,GI50,[8],> 100 µM
same,TGI,[8],> 100 µM
same,GI50,[9],> 100 µM
same,TGI,[9],> 100 µM
same,GI50,[10],> 100 µM
same,TGI,[10],> 100 µM
same,GI50,[11],> 100 µM
same,TGI,[11],> 100 µM
same,GI50,[12],> 100 µM
same,TGI,[12],> 100 µM
same,GI50,[13],> 100 µM
same,TGI,[13],> 100 µM
same,GI50,[14],> 100 µM
same,TGI,[14],> 100 µM
same,GI50,[15],> 100 µM
same,TGI,[15],> 100 µM
same,GI50,[16],> 100 µM
same,TGI,[16],> 100 µM
same,GI50,[17],> 100 µM
same,TGI,[17],> 100 µM
same,GI50,[18],> 100 µM
same,TGI,[18],> 100 µM
same,GI50,[19],> 100 µM
same,TGI,[19],> 100 µM
same,GI50,[20],> 100 µM
same,TGI,[20],> 100 µM
same,GI50,[21],> 100 µM
same,TGI,[21],> 100 µM
same,GI50,[22],> 100 µM
same,TGI,[22],> 100 µM
same,GI50,[23],> 100 µM
same,TGI,[23],> 100 µM
same,GI50,[24],> 100 µM
same,TGI,[24],> 100 µM
same,GI50,[25],> 100 µM
same,TGI,[25],> 100 µM
same,GI50,[26],> 100 µM
same,TGI,[26],> 100 µM
same,GI50,[27],> 100 µM
same,TGI,[27],> 100 µM
same,GI50,[28],> 100 µM
same,TGI,[28],> 100 µM
same,GI50,[29],> 100 µM
same,TGI,[29],> 100 µM
same,GI50,[30],> 100 µM
same,TGI,[30],> 100 µM
same,GI50,[31],> 100 µM
same,TGI,[31],> 100 µM
same,GI50,[32],> 100 µM
same,TGI,[32],> 100 µM
same,GI50,[33],> 100 µM
same,TGI,[33],> 100 µM
same,GI50,[34],> 100 µM
same,TGI,[34],> 100 µM
same,GI50,[35],> 100 µM
same,TGI,[35],> 100 µM
same,GI50,[36],> 100 µM
same,TGI,[36],> 100 µM
same,GI50,[37],> 100 µM
same,TGI,[37],> 100 µM
same,GI50,[38],> 100 µM
same,TGI,[38],> 100 µM
same,GI50,[39],> 100 µM
same,TGI,[39],> 100 µM
same,GI50,[40],> 100 µM
same,TGI,[40],> 100 µM
same,GI50,[41],> 100 µM
same,TGI,[41],> 100 µM
same,GI50,[42],> 100 µM
same,TGI,[42],> 100 µM
same,GI50,[43],> 100 µM
same,TGI,[43],> 100 µM
same,GI50,[44],> 100 µM
same,TGI,[44],> 100 µM
same,GI50,[45],> 100 µM
same,TGI,[45],> 100 µM
same,GI50,[46],> 100 µM
same,TGI,[46],> 100 µM
same,GI50,[47],> 100 µM
same,TGI,[47],> 100 µM
same,GI50,[48],> 100 µM
same,TGI,[48],> 100 µM
same,GI50,[49],> 100 µM
same,TGI,[49],> 100 µM
same,GI50,[50],> 100 µM
same,TGI,[50],> 100 µM
same,GI50,[51],> 100 µM
same,TGI,[51],> 100 µM
same,GI50,[52],> 100 µM
same,TGI,[52],> 100 µM
same,GI50,[53],> 100 µM
same,TGI,[53],> 100 µM
same,GI50,[54],> 100 µM
same,TGI,[54],> 100 µM
same,GI50,[55],> 100 µM
same,TGI,[55],> 100 µM
same,GI50,[56],> 100 µM
same,TGI,[56],> 100 µM
same,GI50,[57],> 100 µM
same,TGI,[57],> 100 µM
same,GI50,[58],> 100 µM
same,TGI,[58],> 100 µM
